Legend:
[1] = biological target: T1, GatFABF24–183 (pseudo-wild-type, full-length GatFAB) (Saccharomyces cerevisiae, UniProt Q03557); experiment: glutaminase assay, […]Gln, TLC; type: biochemical; details: 50 μM [14C]L-glutamine; Glu-tRNA^Gln, ATP, 12 mM MgCl2, pH 7.2, 37°C; labelled compound
T1 construct: gene HER2; heterotrimer; E. coli host; with Glutamyl-tRNA(Gln) amidotransferase subunit B, mitochondrial; Glutamyl-tRNA(Gln) amidotransferase subunit F, mitochondrial
T1 sequence (Q03557 1-464): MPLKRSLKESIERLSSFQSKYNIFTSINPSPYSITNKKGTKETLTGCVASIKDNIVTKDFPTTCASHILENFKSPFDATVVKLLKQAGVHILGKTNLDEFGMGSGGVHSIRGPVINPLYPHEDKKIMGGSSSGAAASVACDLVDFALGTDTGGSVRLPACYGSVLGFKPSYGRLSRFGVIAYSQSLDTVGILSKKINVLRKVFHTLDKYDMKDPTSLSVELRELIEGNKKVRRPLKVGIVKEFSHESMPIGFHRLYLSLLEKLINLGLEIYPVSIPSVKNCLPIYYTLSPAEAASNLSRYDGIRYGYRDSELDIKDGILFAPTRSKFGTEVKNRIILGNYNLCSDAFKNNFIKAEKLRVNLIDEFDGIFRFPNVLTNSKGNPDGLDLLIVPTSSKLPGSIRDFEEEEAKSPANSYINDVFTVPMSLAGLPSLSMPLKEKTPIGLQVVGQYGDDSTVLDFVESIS
T1 sequence (P33893 16-541 partner): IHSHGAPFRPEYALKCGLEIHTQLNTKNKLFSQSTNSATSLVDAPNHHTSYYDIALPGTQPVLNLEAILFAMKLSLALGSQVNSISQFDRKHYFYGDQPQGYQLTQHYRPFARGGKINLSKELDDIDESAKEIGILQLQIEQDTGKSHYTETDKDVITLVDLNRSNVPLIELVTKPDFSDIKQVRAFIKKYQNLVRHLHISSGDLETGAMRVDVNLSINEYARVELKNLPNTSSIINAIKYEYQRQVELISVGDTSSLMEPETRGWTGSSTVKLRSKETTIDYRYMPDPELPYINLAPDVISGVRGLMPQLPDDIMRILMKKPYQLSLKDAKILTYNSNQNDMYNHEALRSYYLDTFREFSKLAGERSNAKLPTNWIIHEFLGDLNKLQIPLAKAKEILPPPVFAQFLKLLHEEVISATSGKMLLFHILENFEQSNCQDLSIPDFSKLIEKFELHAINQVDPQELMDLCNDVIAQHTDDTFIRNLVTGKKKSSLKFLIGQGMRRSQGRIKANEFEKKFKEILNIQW
T1 sequence (P53260 24-183 partner): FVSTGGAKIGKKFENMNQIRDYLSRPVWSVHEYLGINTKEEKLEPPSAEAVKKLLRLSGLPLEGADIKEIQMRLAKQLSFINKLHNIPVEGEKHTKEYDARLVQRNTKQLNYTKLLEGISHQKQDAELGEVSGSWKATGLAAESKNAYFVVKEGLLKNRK

GatFABΔHY = biological target: T2, GatFABΔHY (Saccharomyces cerevisiae, UniProt Q03557); experiment: X-ray crystal structure, […] Å; type: binding; details: 10 mM glutamine added before crystallization; GatA glutaminase site (R334, D418, near S154)
T2 construct: gene HER2; heterotrimer; E. coli host; with Glutamyl-tRNA(Gln) amidotransferase subunit B, mitochondrial; Glutamyl-tRNA(Gln) amidotransferase subunit F, mitochondrial
T2 sequence (Q03557 1-464): T1 sequence (Q03557 1-464)
T2 sequence (P33893 16-329 partner): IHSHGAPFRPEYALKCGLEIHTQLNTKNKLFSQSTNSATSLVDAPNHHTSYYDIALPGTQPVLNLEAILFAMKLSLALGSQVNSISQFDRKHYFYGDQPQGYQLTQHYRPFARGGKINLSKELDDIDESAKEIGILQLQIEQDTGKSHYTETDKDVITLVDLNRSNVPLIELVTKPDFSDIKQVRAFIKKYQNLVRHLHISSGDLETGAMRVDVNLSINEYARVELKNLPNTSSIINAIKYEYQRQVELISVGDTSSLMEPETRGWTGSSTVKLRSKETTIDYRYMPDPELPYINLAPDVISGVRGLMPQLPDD
T2 sequence (P53260 24-183 partner): T1 sequence (P53260 24-183 partner)

NC(=O)CC[C@H](N)C(=O)O [glutamine]
glutaminase assay, [14C]Gln, TLC [1]: reduced activities in both GatA-mediated glutamine-hydrolysis and GatB-mediated transamidation when compared to that of the full-length
X-ray crystal structure, 2.0 Å (GatFABΔHY): the glutamine molecule is bound to the glutaminase site of GatA

Source: publication PMC4027206, “Crystal structure of Saccharomyces cerevisiae mitochondrial GatFAB reveals a novel subunit assembly in tRNA-dependent amidotransferases” (Nucleic Acids Research, 2014)
